Values after ≈ are worked out from the molar mass of the structure shown. Where two headings read alike, the source gives them in different places.
How the values were obtained:
E. coli 25922 [1] = assay: Experimental systemic septicaemia in the mouse; format: in vivo; conditions: 96 h
Outline: (§1)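 ED50 in mg/kg s.c. is the Probit-derived dose protecting half the mice, judged on survival 4 days after i.p. challenge (about 5-100× 48 h LD50) in 16-20 g albino mice, 5 per group. Dosing was s.c. in 2% Tween 80 at 1 and 3 h, plus 5 h for P. aeruginosa.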

S. aureus Schoch = assay: Experimental systemic septicaemia in the mouse; format: in vivo; conditions: Staphylococcus aureus, sc, 96 h
Outline: as §1

[2] = tested on: Pseudomonas aeruginosa BA; assay: Experimental systemic septicaemia in the mouse; format: in vivo; conditions: sc, 96 h
Outline: as §1

K. oxytoca 1082 = assay: Minimum inhibitory concentration in vitro, agar dilution method; format: cell-based; conditions: Klebsiella oxytoca
Text: (§2) 1. Minimum Inhibitory Concentration in vitro
(§3) The activities ascertained, minimum inhibitory concentration (MIC) in μg/ml, are compiled in Table 1 hereinafter: […]

P. aeruginosa 799/WT = assay: as above; format: cell-based; conditions: Pseudomonas aeruginosa
Text: as §2, §3

E. cloacae P99 = assay: as above; format: cell-based; conditions: Enterobacter cloacae
Text: as §2, §3

P. aeruginosa BA = assay: as above; format: cell-based; conditions: Pseudomonas aeruginosa
Text: as §2, §3

S. aureus 6538 = assay: as above; format: cell-based; conditions: Staphylococcus aureus
Text: as §2, §3

E. coli 25922 [3] = assay: as above; format: cell-based; conditions: Escherichia coli
Text: as §2, §3

S. pneumoniae BA = assay: as above; format: cell-based; conditions: Streptococcus pneumoniae
Text: as §2, §3

S. pyogenes 15 = assay: as above; format: cell-based; conditions: Streptococcus pyogenes
Text: as §2, §3

P. aeruginosa 27853 = assay: as above; format: cell-based; conditions: Pseudomonas aeruginosa
Text: as §2, §3

E. cloacae 908SSi = assay: as above; format: cell-based; conditions: Enterobacter cloacae
Text: as §2, §3

P. aeruginosa MK1184 = assay: as above; format: cell-based; conditions: Pseudomonas aeruginosa
Text: as §2, §3

K. pneumoniae 418 = assay: as above; format: cell-based; conditions: Klebsiella pneumoniae
Text: as §2, §3

P. mirabilis 2117 = assay: as above; format: cell-based; conditions: Proteus mirabilis
Text: as §2, §3

E. cloacae 908R = assay: as above; format: cell-based; conditions: Enterobacter cloacae
Text: as §2, §3

S. marcescens 69438 = assay: as above; format: cell-based; conditions: Serratia marcescens
Text: as §2, §3

P. vulgaris 1028 = assay: as above; format: cell-based; conditions: Proteus vulgaris
Text: as §2, §3

C. freundii 902 = assay: as above; format: cell-based; conditions: Citrobacter freundii
Text: as §2, §3

P. aeruginosa 799/61 = assay: as above; format: cell-based; conditions: Pseudomonas aeruginosa
Text: as §2, §3

## Cc1cc(SCC2=C(C(=O)[O-])N3C(=O)[C@@H](NC(=O)/C(=N\OC(C)(C)C(=O)NNC(=O)c4ccc(O)c(O)c4)c4csc(N)n4)[C@H]3SC2)n2nc(CNC(=O)c3ccc(O)c(O)c3)nc2n1.[Na+] [Example 61, (6R,7R)-7-[(Z)-2-(2-amino-4-thiazolyl)-2-[[1-[3-(3,4-dihydroxybenzoyl)carbazoyl]-1-methylethoxy]imino]acetamido]-3-[[[2-[[(3,4-dihydroxybenzoyl)amino]methyl]-5-methyl-s-triazolo[1,5-a]pyrimidin-7-yl]thio]methyl]-8-oxo-5-thiaazabicyclo[4.2.0]oct-2-ene-2-carboxylic acid sodium salt (1:1)]
E. coli 25922 [1]; Escherichia coli, 25922, sc
  ED50: < 0.1 mg/kg
S. aureus Schoch
  ED50: 8.4 mg/kg
[2]
  ED50: 0.06 mg/kg
K. oxytoca 1082; 1082
  MIC: < 0.1 µg/mL
P. aeruginosa 799/WT; 799/WT
  MIC: < 0.1 µg/mL
E. cloacae P99
  MIC: 1 µg/mL
P. aeruginosa BA
  MIC: < 0.1 µg/mL
S. aureus 6538; 6538
  MIC: 16 µg/mL
E. coli 25922 [3]; 25922
  MIC: < 0.1 µg/mL
S. pneumoniae BA
  MIC: 4 µg/mL
S. pyogenes 15; 15
  MIC: 1 µg/mL
P. aeruginosa 27853; 27853
  MIC: < 0.1 µg/mL
E. cloacae 908SSi; 908SSI
  MIC: 1 µg/mL
P. aeruginosa MK1184; MK1184
  MIC: < 0.1 µg/mL
K. pneumoniae 418; 418
  MIC: < 0.1 µg/mL
P. mirabilis 2117; 2117
  MIC: < 0.1 µg/mL
E. cloacae 908R; 908R
  MIC: 0.5 µg/mL
S. marcescens 69438; 69438
  MIC: < 0.1 µg/mL
P. vulgaris 1028; 1028
  MIC: < 0.1 µg/mL
C. freundii 902; 902
  MIC: < 0.1 µg/mL
P. aeruginosa 799/61; 799/61
  MIC: < 0.1 µg/mL

## Nc1nc(/C(=N/OCc2cc(=O)c(O)co2)C(=O)N[C@@H]2C(=O)N3C(C(=O)O)=C(CSc4cc(-c5ccc(O)c(O)c5)nc5ccnn45)CS[C@H]23)cs1 [Example 14, (6R,7R)-7-[(Z)-2-(2-amino-4-thiazolyl)-2-[[(5-hydroxy-4-oxo-4H-pyran-2-yl)methoxy]imino]acetamido]-3-[[[5-(3,4-dihydroxyphenyl)pyrazolo[1,5-a]pyrimidin-7-yl]thio]methyl]-8-oxo-5-thia-1-azabicyclo[4.2.0]oct-2-ene-2-carboxylicacid]
E. coli 25922 [1]; Escherichia coli, sc, E. coli 25922, albino mice, s.c. 1 and 3 hours after infection, survival after 4 days, read-out: ED50
  ED50: 4.4 mg/kg
S. aureus Schoch; S. aureus Schoch, albino mice, s.c. 1 and 3 hours after infection, survival after 4 days, read-out: ED50
  ED50: > 12 mg/kg
[2]; P. aeruginosa BA, albino mice, s.c. 1, 3 and 5 hours after infection, survival after 4 days, read-out: ED50
  ED50: 7.1 mg/kg
K. oxytoca 1082; K. oxytoca 1082, agar dilution, read-out: MIC
  MIC: 0.12 µg/mL (≈ 0.157 µM)
P. aeruginosa 799/WT; P. aeruginosa 799/WT, agar dilution, read-out: MIC
  MIC: 1 µg/mL (≈ 1.31 µM)
E. cloacae P99
  MIC: 16 µg/mL (≈ 20.9 µM)
P. aeruginosa BA; P. aeruginosa BA, agar dilution, read-out: MIC
  MIC: 4 µg/mL (≈ 5.23 µM)
S. aureus 6538; S. aureus 6538, agar dilution, read-out: MIC
  MIC: 16 µg/mL (≈ 20.9 µM)
E. coli 25922 [3]; E. coli 25922, agar dilution, read-out: MIC
  MIC: 0.12 µg/mL (≈ 0.157 µM)
S. pneumoniae BA; S. pneumoniae BA, agar dilution, read-out: MIC
  MIC: 0.5 µg/mL (≈ 0.654 µM)
S. pyogenes 15; S. pyogenes 15, agar dilution, read-out: MIC
  MIC: 0.5 µg/mL (≈ 0.654 µM)
P. aeruginosa 27853; P. aeruginosa 27853, agar dilution, read-out: MIC
  MIC: 4 µg/mL (≈ 5.23 µM)
E. cloacae 908SSi; E. cloacae 908SSi, agar dilution, read-out: MIC
  MIC: 1 µg/mL (≈ 1.31 µM)
P. aeruginosa MK1184; P. aeruginosa MK1184, agar dilution, read-out: MIC
  MIC: 16 µg/mL (≈ 20.9 µM)
K. pneumoniae 418; K. pneumoniae 418, agar dilution, read-out: MIC
  MIC: 0.06 µg/mL (≈ 0.0785 µM)
P. mirabilis 2117; P. mirabilis 2117, agar dilution, read-out: MIC
  MIC: 0.5 µg/mL (≈ 0.654 µM)
E. cloacae 908R; E. cloacae 908R, agar dilution, read-out: MIC
  MIC: 2 µg/mL (≈ 2.62 µM)
S. marcescens 69438; S. marcescens 69438, agar dilution, read-out: MIC
  MIC: 0.25 µg/mL (≈ 0.327 µM)
P. vulgaris 1028; P. vulgaris 1028, agar dilution, read-out: MIC
  MIC: 0.25 µg/mL (≈ 0.327 µM)
C. freundii 902; C. freundii 902, agar dilution, read-out: MIC
  MIC: 1 µg/mL (≈ 1.31 µM)
P. aeruginosa 799/61; P. aeruginosa 799/61, agar dilution, read-out: MIC
  MIC: 0.06 µg/mL (≈ 0.0785 µM)

From patent publication US5438052A, “Cephalosporin derivatives” (Hoffmann-La Roche Inc., priority 1991, dated 1995)
